Reference: US20110151485A1, “METHOD FOR SCREENING FOR ANTIANGIOGENIC AGENT, AND METHOD FOR SCREENING FOR ANTIANGIOGENIC SIGNAL GENE” (National University Corporation Tokyo Medical and Dental …, priority 2008, published 2011)

What was measured:
Assay type in all cases: cell-based
PKR [1] = assay: western blotting with phospho-specific anti-PKR antibody, aorta endothelial cells (rAEC); settings: rat aorta derived primary endothelial cells, 4 or 8 hours
Description: Similarly, […] aorta endothelial cells (rAEC) were treated respectively with salubrinal (20 μM), rifampicin (40 μg/ml), or endostatin (1.0×10^−9 M); PKR inhibitor A (2-aminopurine, 10 mM) followed by endostatin (1.0×10^−9 M); PKR inhibitor B (8-(imidazole-4-ylmethylene)-6H-azolidino [5,4-g]benzodiazole-7-one, 0.3 μM) followed by rifampicin (40 μg/ml); and PKR inhibitor B (same as above, 0.3 μM) followed by endostatin (1.0×10^−9 M); and maintained at 37° C. for 4 or 8 hours. Total cell extracts from respective samples were subjected to western blotting analysis using phospho-specific anti-PKR antibody to determine the extent of PKR phosphorylation.

PKR [2] = assay: fluorescent antibody staining with phospho-specific anti-PKR antibody, human umbilical vein endothelial cells
Description: Human umbilical endothelial cells cultured in HamF12K were treated with 40 μg/ml of rifampicin or 1.0×10^−9 M of endostatin, and maintained at 37° C. for 30 minutes. Cells were then stained using phospho-specific anti-PKR antibody as the primary antibody, and the presence of phosphorylated PKR was examined in the cells.
Similar experiments were also performed in human umbilical vein endothelial cells pre-treated with structural analog of PKR inhibitor (PKR negative) and then treated with 40 μg/ml rifampicin, as well as in human umbilical vein endothelial cells pre-treated with PKR inhibitor B (8-(imidazole-4-ylmethylene)-6H-azolidino [5,4-g]benzodiazole-7-one, 0.3 μM) and then treated with 40 μg/ml rifampicin or 1.0×10^−9 M endostatin, respectively.

Ephrin A1 gene = assay: real-time quantitative RT-PCR, Ephrin A1 gene, human umbilical vein endothelial cells; settings: 4 to 8 hours
Description: (§2) Human umbilical vein endothelial cells cultured in HamF12K medium were treated with 40 μg/ml rifampicin or 1.0×10^−8 M endostatin, and maintained at 37° C. for 4 to 8 hours. […] After establishing the quantification condition, the amount of mRNA for these genes were quantified. […] Human umbilical vein endothelial cells cultured in HamF12K medium were treated with 20 μM salubrinal, and maintained at 37° C. for 4 to 8 hours. Subsequently, total cell extracts were subjected to real-time quantitative RT-PCR using TaqMan probe for ID1 gene, ID3 gene, integrinαv gene, Flt gene and Ephrin A1 gene, respectively. After establishing the quantification condition, the amount of mRNA for these genes were quantified.

Flt gene = assay: real-time quantitative RT-PCR, Flt gene, human umbilical vein endothelial cells; settings: 4 to 8 hours
Description: as §2

ID1 gene = assay: real-time quantitative RT-PCR, ID1 gene, human umbilical vein endothelial cells; settings: 4 to 8 hours
Description: as §2

integrinαv gene = assay: real-time quantitative RT-PCR, integrinαv gene, human umbilical vein endothelial cells; settings: 4 to 8 hours
Description: as §2

ID3 gene = assay: real-time quantitative RT-PCR, ID3 gene, human umbilical vein endothelial cells; settings: 4 to 8 hours
Description: as §2

PKR mRNA = assay: real-time quantitative RT-PCR, PKR mRNA, human umbilical vein endothelial cells; settings: 40 μg/ml rifampicin or 1.0×10^−8 M endostatin, 4 to 8 hours
Description: Human umbilical vein endothelial cells cultured in HamF12K medium were treated with 40 μg/ml rifampicin or 1.0×10^−8 M endostatin, and maintained at 37° C. for 4 to 8 hours. Subsequently, total cell extracts were subjected to real-time quantitative RT-PCR using TaqMan probe for PKR mRNA, and the amount of PKR mRNA was quantified. Similar processes were repeated for human umbilical vein endothelial cell samples that were transfected with PKR siRNA prior to rifampicin or endostatin treatment.

PKR [3] = assay: western blotting with phospho-specific anti-PKR antibody, human retina vessel endothelial cells (hREC); settings: 40 μg/ml rifampicin or 1.0×10^−9 M endostatin, 10 to 240 minutes
Description: (§1) Human retina vessel endothelial cells (hREC) or human umbilical vein endothelial cells (hUVEC) cultured in HamF12K medium supplemented with 10% bovine fetal serum and growth factors were treated with either 40 μg/ml rifampicin or 1.0×10^−9 M endostatin, and maintained at 37° C. for 10 to 240 minutes. Total cell extracts from the maintained cells were then subjected to western blotting using phospho-specific anti-PKR antibody to examine the time course of PKR phosphorylation.

PKR [4] = assay: western blotting with phospho-specific anti-PKR antibody, human umbilical vein endothelial cells (hUVEC); settings: 40 μg/ml rifampicin or 1.0×10^−9 M endostatin, 10 to 240 minutes
Description: as §1

[5] = hUVEC transfected with PKR siRNA prior to 40 μg/ml rifampicin or 1.0×10^−8 M endostatin
[6] = hUVEC, 40 μg/ml rifampicin or 1.0×10^−8 M endostatin

O=C1Nc2ccc3ncsc3c2C1=Cc1cnc[nH]1 [PKR inhibitor B, reference compound]
effect of PKR inhibitor pre-treatment on rifampicin or endostatin induced PKR phosphorylation (PKR [1]; inhibitor 0.3 μM): did not induce PKR phosphorylation
effect of PKR inhibitor pre-treatment on PKR phosphorylation after rifampicin or endostatin treatment (fluorescent antibody) (PKR [2]; inhibitor 0.3 μM): did not occur

O=C(/C=C/c1ccccc1)NC(NC(=S)Nc1cccc2cccnc12)C(Cl)(Cl)Cl (stereo not drawn) [salubrinal, reference compound]
expression level of mRNA for Ephrin A1 gene (Ephrin A1 gene; hUVEC, 20 μM salubrinal): decrease
expression level of mRNA for Flt gene (Flt gene; hUVEC, 20 μM salubrinal): decrease
expression level of mRNA for ID1 gene (ID1 gene; hUVEC, 20 μM salubrinal): decrease
expression level of mRNA for integrinαv gene (integrinαv gene; hUVEC, 20 μM salubrinal): decrease
expression level of mRNA for ID3 gene (ID3 gene; hUVEC, 20 μM salubrinal): decrease

endostatin
PKR expression (PKR mRNA) (PKR mRNA): increased
decrease of expression of Ephrin A1 gene in PKR siRNA treated samples (Ephrin A1 gene; [5]): did not occur
expression level of Ephrin A1 gene (Ephrin A1 gene; [6]): decreased
decrease of expression of Flt gene in PKR siRNA treated samples (Flt gene; [5]): did not occur
expression level of Flt gene (Flt gene; [6]): decreased
phosphorylation of PKR in cells pre-treated with specific PKR inhibitor (PKR [1]; PKR inhibitor B 0.3 μM followed by rifampicin 40 μg/ml or endostatin 1.0×10^−9 M): did not induce PKR phosphorylation
phosphorylation of PKR (PKR [1]; rifampicin 40 μg/ml or endostatin 1.0×10^−9 M): induced phosphorylation of PKR
phosphorylation of PKR (PKR [3]): enhanced
decrease of expression of ID1 gene in PKR siRNA treated samples (ID1 gene; [5]): did not occur
expression level of ID1 gene (ID1 gene; [6]): decreased
decrease of expression of integrinαv gene in PKR siRNA treated samples (integrinαv gene; [5]): did not occur
expression level of integrinαv gene (integrinαv gene; [6]): decreased
decrease of expression of ID3 gene in PKR siRNA treated samples (ID3 gene; [5]): did not occur
expression level of ID3 gene (ID3 gene; [6]): decreased
phosphorylation of PKR (PKR [4]): enhanced
PKR phosphorylation in the cell (fluorescent antibody) (PKR [2]; 40 μg/ml rifampicin or 1.0×10^−9 M endostatin, 30 minutes): induced enhancement of PKR phosphorylation
PKR phosphorylation in cells pre-treated with specific PKR inhibitor (fluorescent antibody) (PKR [2]; PKR inhibitor B 0.3 μM, then 40 μg/ml rifampicin or 1.0×10^−9 M endostatin): did not occur
